Values quoted from earlier work as cited in US5006510A, “Method for relieving chronic pain with a somatostatin analog composition” (priority 1989, dated 1991).
Like-named read-outs stand apart in the source and are kept apart here.

What was measured:
[1] = applied topically with N-decylmethylsulfoxide; human skin
[2] = applied topically with N-decylmethylsulfoxide; mouse skin

C[C@@H](O)[C@@H]1NC(=O)[C@H](CCCCN)NC(=O)[C@@H](Cc2c[nH]c3ccccc23)NC(=O)[C@H](Cc2ccccc2)NC(=O)[C@@H](NC(=O)[C@H](N)Cc2ccccc2)CSSC[C@@H](C(=O)N[C@H](CO)[C@@H](C)O)NC1=O [octreotide, octreotide acetate]
skin permeation [1]: permeates both human and mouse skin | skin permeation [2]: permeates both human and mouse skin
